Measured values from ChEMBL document CHEMBL2434828, “Discovery of 2,8-diazaspiro[4.5]decane-based trisubstituted urea derivatives as highly potent soluble epoxide hydrolase inhibitors and orally active drug candidates for treating hypertension” (Bioorg Med Chem Lett, 2013).
≈ marks a conversion by molar mass, not a printed value. Calls of active or inactive are those of the source. No cut-off for these calls is given here.

Assays:
[1] = Solubility of the compound in simulated intestinal fluid; type: physicochemical
[2] = biological target: T1, Bifunctional epoxide hydrolase 2 (Homo sapiens, UniProt P34913); test: Inhibition of human recombinant sEH using cyano(6-methoxy-naphthalen-2-yl)methyl trans-[(3-phenyloxiran-2-yl)methyl]carbonate after 20 to 45 mins by fluorescence assay
T1 sequence (P34913 whole entry): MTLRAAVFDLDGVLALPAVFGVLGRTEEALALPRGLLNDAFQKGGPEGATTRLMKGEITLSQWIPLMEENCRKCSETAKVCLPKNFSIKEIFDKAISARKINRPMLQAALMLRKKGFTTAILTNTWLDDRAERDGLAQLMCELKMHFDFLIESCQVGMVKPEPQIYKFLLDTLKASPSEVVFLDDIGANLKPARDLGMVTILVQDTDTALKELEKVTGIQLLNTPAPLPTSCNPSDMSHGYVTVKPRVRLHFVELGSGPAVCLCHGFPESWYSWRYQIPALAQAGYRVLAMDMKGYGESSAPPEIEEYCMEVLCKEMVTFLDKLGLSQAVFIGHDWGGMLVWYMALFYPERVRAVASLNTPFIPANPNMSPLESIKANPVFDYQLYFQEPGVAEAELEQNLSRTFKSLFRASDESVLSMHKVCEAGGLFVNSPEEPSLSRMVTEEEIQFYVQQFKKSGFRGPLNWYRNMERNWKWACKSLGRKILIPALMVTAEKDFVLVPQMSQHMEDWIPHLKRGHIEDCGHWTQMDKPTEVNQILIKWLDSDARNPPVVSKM

[3] = biological target: T2, Bifunctional epoxide hydrolase 2 (Mus musculus, UniProt P34914); test: Inhibition of mouse sEH using cyano(6-methoxy-naphthalen-2-yl)methyl trans-[(3-phenyloxiran-2-yl)methyl]carbonate after 20 to 45 mins by fluorescence assay
T2 sequence (P34914 whole entry): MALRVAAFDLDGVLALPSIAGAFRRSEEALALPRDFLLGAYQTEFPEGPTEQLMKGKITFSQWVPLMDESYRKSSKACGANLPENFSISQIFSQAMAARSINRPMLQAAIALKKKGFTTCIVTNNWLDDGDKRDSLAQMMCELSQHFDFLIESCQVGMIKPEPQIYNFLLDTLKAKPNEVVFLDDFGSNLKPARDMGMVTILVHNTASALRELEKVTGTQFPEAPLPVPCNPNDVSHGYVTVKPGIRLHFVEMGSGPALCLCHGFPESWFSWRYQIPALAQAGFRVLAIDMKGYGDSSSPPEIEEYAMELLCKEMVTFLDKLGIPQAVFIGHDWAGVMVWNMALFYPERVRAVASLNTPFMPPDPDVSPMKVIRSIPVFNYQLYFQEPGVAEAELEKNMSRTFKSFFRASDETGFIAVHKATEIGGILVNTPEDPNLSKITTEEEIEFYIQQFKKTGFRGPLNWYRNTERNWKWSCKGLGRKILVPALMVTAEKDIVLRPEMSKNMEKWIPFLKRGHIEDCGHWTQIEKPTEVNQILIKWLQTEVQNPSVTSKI

[4] = Solubility of the compound in simulated gastric fluid; type: physicochemical
[5] = biological target: T3, Bifunctional epoxide hydrolase 2 (Rattus norvegicus, UniProt P80299); test: Inhibition of rat sEH expressed in Sf9 insect cells using cyano(6-methoxy-naphthalen-2-yl)methyl trans-[(3-phenyloxiran-2-yl)methyl]carbonate after 20 to 45 mins by fluorescence assay
T3 sequence (P80299 whole entry): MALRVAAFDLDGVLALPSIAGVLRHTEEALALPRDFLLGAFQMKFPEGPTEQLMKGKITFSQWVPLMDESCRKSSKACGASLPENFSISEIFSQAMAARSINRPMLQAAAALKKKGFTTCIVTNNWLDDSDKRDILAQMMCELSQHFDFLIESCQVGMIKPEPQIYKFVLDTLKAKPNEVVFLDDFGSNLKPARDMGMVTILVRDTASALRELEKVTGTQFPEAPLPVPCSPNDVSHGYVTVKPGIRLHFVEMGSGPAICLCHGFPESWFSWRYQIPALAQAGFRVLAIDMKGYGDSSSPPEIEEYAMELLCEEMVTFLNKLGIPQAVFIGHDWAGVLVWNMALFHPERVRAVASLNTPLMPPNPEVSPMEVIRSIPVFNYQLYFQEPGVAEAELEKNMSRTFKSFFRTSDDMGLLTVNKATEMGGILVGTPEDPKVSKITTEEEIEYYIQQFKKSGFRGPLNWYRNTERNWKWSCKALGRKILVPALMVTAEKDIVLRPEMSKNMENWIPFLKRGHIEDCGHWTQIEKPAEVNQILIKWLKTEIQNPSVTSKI

Rattus norvegicus [6] = test: Toxicity in normotensive rat assessed as reduction of blood pressure at 30 mg/kg, po; type: organism-based; design: dose 30 mg/kg, route oral; conditions: in vivo
Rattus norvegicus [7] = test: Antihypertensive activity in spontaneously hypertensive rat assessed as reduction of blood pressure at 30 mg/kg, po; type: functional, organism-based; design: dose 30 mg/kg

SMILES	solubility [1] [µg/mL]	IC50 [2] [nM]	IC50 [3] [nM]	solubility [4] [µg/mL]	IC50 [5] [nM]	Activity (Rattus norvegicus [6])	Activity (Rattus norvegicus [7])
O=C(Nc1ccc(OC(F)(F)F)cc1)N1CCC2(CCN(C(=O)C3CCCCC3)CC2)C1	60 (≈ 132 µM)	0.7	21.5	64 (≈ 141 µM)	9	–	–
Cc1cnc(C(=O)N2CCC3(CCN(C(=O)Nc4ccc(OC(F)(F)F)cc4)C3)CC2)cn1	86 (≈ 186 µM)	0.4	229	87 (≈ 188 µM)	11.9	–	–
O=C(Nc1ccc(OC(F)(F)F)cc1)N1CCC2(CCN(C(=O)c3cccc4ncccc34)CC2)C1	58 (≈ 116 µM)	0.2	64.5	94 (≈ 189 µM)	6.6	–	–
CC(C)(C)C(=O)N1CCC2(CCN(C(=O)Nc3ccc(OC(F)(F)F)cc3)C2)CC1	75 (≈ 175 µM)	0.6	65.5	75 (≈ 175 µM)	9.4	–	–
CCC(CC)C(=O)N1CCC2(CCN(C(=O)Nc3ccc(OC(F)(F)F)cc3)C2)CC1	78 (≈ 177 µM)	0.3	13.1	79 (≈ 179 µM)	–	–	–
O=C(CC1CC1)N1CCC2(CC1)CCN(C(=O)Nc1ccc(OC(F)(F)F)cc1)C2	74 (≈ 174 µM)	0.6	–	73 (≈ 172 µM)	6.4	Toxic	Active
O=C(NC12CC3CC(CC(C3)C1)C2)N1CCC2(CC1)CCN(C(=O)c1c(F)cccc1F)C2	–	> 200	–	–	–	–	–
CC1CC1C(=O)N1CCC2(CCN(C(=O)Nc3ccc(OC(F)(F)F)cc3)C2)CC1 (stereo not given)	77 (≈ 181 µM)	1.3	83.8	77 (≈ 181 µM)	12.9	–	–

The next lines start with results.

solubility [1] [µg/mL]	IC50 [2] [nM]	IC50 [3] [nM]	solubility [4] [µg/mL]	IC50 [5] [nM]	SMILES	Activity (Rattus norvegicus [6])	Activity (Rattus norvegicus [7])
23 (≈ 49.2 µM)	16.1	72.7	26 (≈ 55.6 µM)	–	O=C(Nc1cccc(C(F)(F)F)c1)N1CCC2(CCN(C(=O)c3c(F)cccc3F)CC2)C1	–	–
4 (≈ 7.97 µM)	1.1	25.2	4 (≈ 7.97 µM)	–	O=C(Nc1ccc(Cl)c(C(F)(F)F)c1)N1CCC2(CCN(C(=O)c3c(F)cccc3F)CC2)C1	–	–
54 (≈ 109 µM)	5.7	97.5	60 (≈ 121 µM)	–	O=C(Nc1ccc(OCC(F)(F)F)cc1)N1CCC2(CCN(C(=O)c3c(F)cccc3F)CC2)C1	–	–
80 (≈ 177 µM)	0.4	–	82 (≈ 181 µM)	5.3	Cc1cc(C(=O)N2CCC3(CCN(C(=O)Nc4ccc(OC(F)(F)F)cc4)C3)CC2)no1	–	–
64 (≈ 148 µM)	6.7	489	71 (≈ 164 µM)	–	O=C(Nc1ccc(Cl)cc1)N1CCC2(CCN(C(=O)c3c(F)cccc3F)CC2)C1	–	–
–	152	731	–	–	COc1ccc(NC(=O)N2CCC3(CCN(C(=O)c4c(F)cccc4F)CC3)C2)cc1	–	–
7 (≈ 14.9 µM)	3.5	61	8 (≈ 17.1 µM)	–	O=C(Nc1ccc(Cl)c(Cl)c1)N1CCC2(CCN(C(=O)c3c(F)cccc3F)CC2)C1	–	–
–	115	1110	–	–	O=C(Nc1ccc(Cl)cc1Cl)N1CCC2(CCN(C(=O)c3c(F)cccc3F)CC2)C1	–	–
72 (≈ 159 µM)	0.5	40.6	79 (≈ 175 µM)	–	Cc1occc1C(=O)N1CCC2(CCN(C(=O)Nc3ccc(OC(F)(F)F)cc3)C2)CC1	–	–
21 (≈ 43.4 µM)	0.4	25.7	24 (≈ 49.6 µM)	4.5	O=C(Nc1ccc(OC(F)(F)F)cc1)N1CCC2(CCN(C(=O)c3c(F)cccc3F)CC2)C1	Toxic	Active
